Here are results for eight compounds from ChEMBL document CHEMBL1130618, “A novel and practical route to A-ring enyne synthon for 1 alpha,25-dihydroxyvitamin D3 analogs: synthesis of A-ring diastereomers of 1 alpha,25-dihydroxyvitamin D2 and 3-methyl-1,25-dihydroxyvitamin D3” (1998).

Test [1] concerns HL-60. In words: HL-60 cell differentiation relative to 1-alpha, 25-dihydroxyvitamin D3. It counts as functional, Homo sapiens.
Test [2] deals with HL-60. The experiment in a line: Effect on HL-60 cell differentiation. It is filed as functional, Homo sapiens.
The species named for test [3] is Rattus norvegicus. The experiment in a line: Compound was evaluated for rat serum Ca concentration. It counts as functional.
Test [4] addresses T1, Vitamin D3 receptor (Bos taurus) (UniProt Q28037).
T1 sequence (whole entry): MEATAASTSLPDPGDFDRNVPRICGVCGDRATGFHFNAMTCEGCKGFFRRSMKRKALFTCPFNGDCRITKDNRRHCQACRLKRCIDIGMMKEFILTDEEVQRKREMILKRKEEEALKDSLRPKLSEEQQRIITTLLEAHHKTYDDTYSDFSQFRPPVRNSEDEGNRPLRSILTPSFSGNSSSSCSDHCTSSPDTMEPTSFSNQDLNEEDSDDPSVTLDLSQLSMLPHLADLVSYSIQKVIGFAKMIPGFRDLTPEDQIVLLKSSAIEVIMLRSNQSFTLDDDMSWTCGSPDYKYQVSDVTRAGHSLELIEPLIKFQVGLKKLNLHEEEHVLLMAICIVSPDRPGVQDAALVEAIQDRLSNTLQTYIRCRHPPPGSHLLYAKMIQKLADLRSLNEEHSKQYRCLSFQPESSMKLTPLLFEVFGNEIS
The experiment in a line: Binding affinity for bovine thymus Vitamin D3 receptor (VDR).

The species entered for test [5] is Rattus norvegicus. In words: Compound was evaluated for rat serum Ca concentration in relative to 1-alpha, 25-dihydroxyvitamin D3. It is filed as functional.

Compound `C=C1/C(=C\C=C2/CCC[C@]3(C)[C@@H]([C@H](C)CCCC(C)(C)O)CC[C@@H]23)C[C@H](O)[C@@H](C)[C@@H]1O` registered a Relative potency in test [1] of 1.5.
The same measure, in the same setting: the result for `C=C1/C(=C\C=C2/CCC[C@]3(C)[C@@H]([C@H](C)CCCC(C)(C)O)CC[C@@H]23)C[C@H](O)[C@H](C)[C@H]1O` reads 0.5; that for `C=C1/C(=C\C=C2/CCC[C@]3(C)[C@@H]([C@H](C)CCCC(C)(C)O)CC[C@@H]23)C[C@H](O)[C@@H](C)[C@H]1O`, 3.
Same read-out and setting: next, `C=C1/C(=C\C=C2/CCC[C@]3(C)[C@@H]([C@H](C)CCCC(C)(C)O)CC[C@@H]23)C[C@@H](O)[C@@H](C)[C@H]1O`: 1.5.
As for `C=C1/C(=C\C=C2/CCC[C@]3(C)[C@@H]([C@H](C)CCCC(C)(C)O)CC[C@@H]23)C[C@@H](O)C[C@@H]1O` [CALCITRIOL], the Relative potency in test [2], in test [3] and in test [4] was 100 in each case.
Turning to `C=C1/C(=C\C=C2/CCC[C@]3(C)[C@@H]([C@H](C)CCCC(C)(C)O)CC[C@@H]23)C[C@@H](O)[C@H](C)[C@@H]1O`, the Relative potency was 200 in test [1] and 400 in test [5].
For `C=C1/C(=C\C=C2/CCC[C@]3(C)[C@@H]([C@H](C)CCCC(C)(C)O)CC[C@@H]23)C[C@@H](O)[C@@H](C)[C@@H]1O` the same measures were 10 and 2.
With `C=C1/C(=C\C=C2/CCC[C@]3(C)[C@@H]([C@H](C)CCCC(C)(C)O)CC[C@@H]23)C[C@@H](O)[C@H](C)[C@H]1O`, in test [1], the Relative potency stood at 1.
